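Exposure lasted 48 hours, with cells grown in 96-well plates and compounds tested at five concentrations. The concentration for full growth arrest is given as TGI.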
Columns and labels:
Experiment in all cases: inhibition of tumour cell growth, NCI panel, 48 h
[1] = tested on: HOP-92 NSCLC
[2] = tested on: DMS 273 small cell lung
[3] = tested on: SK-OV-3 ovarian
[4] = tested on: CCRF-CEM leukemia
[5] = tested on: NCI-H460 lung
[6] = tested on: 786-0 renal
[7] = tested on: DLD-1 colon
[8] = tested on: SF-295 CNS
[9] = tested on: NCI-H522 lung
[10] = tested on: LOX IMVI melanoma
[11] = tested on: TK-10 renal
[12] = tested on: HL-60(TB) leukemia
[13] = tested on: OVCAR-3 ovarian
[14] = tested on: IGROV1 ovarian
[15] = tested on: SF-268 CNS
[16] = tested on: NCI-H23 lung
[17] = tested on: UO-31 renal
[18] = tested on: OVCAR-8 ovarian
[19] = tested on: SNB-19 CNS
[20] = tested on: HCC-2998 colon
[21] = tested on: HT29 colon
[22] = tested on: LXFL 529 NSCLC
[23] = tested on: A549 NSCLC
[24] = tested on: SR leukemia
[25] = tested on: RPMI-8226 leukemia
[26] = tested on: M19-MEL melanoma
[27] = tested on: CAKI-1 renal
[28] = tested on: U251 CNS
[29] = tested on: HCT-15 colon
[30] = tested on: UACC-257 melanoma
[31] = tested on: HOP-18 NSCLC
[32] = tested on: HCT-116 colon
[33] = tested on: OVCAR-5 ovarian
[34] = tested on: M14 melanoma
[35] = tested on: SW-620 colon
[36] = tested on: MALME-3M melanoma
[37] = tested on: ACHN renal
[38] = tested on: UACC-62 melanoma
[39] = tested on: SF-539 CNS
[40] = tested on: SK-MEL-5 melanoma
[41] = tested on: SN12C renal
[42] = tested on: HOP-62 NSCLC
[43] = tested on: SK-MEL-28 melanoma
[44] = tested on: DMS 114 small cell lung
[45] = tested on: SNB-75 CNS
[46] = tested on: KM20L2 colon
[47] = tested on: KM12 colon
[48] = tested on: SK-MEL-2 melanoma
[49] = tested on: COLO 205 colon
[50] = tested on: A498 renal
[51] = tested on: K-562 leukemia
[52] = tested on: SNB-78 CNS
[53] = tested on: RXF 393 renal
[54] = tested on: MOLT-4 leukemia
[55] = tested on: OVCAR-4 ovarian
[56] = tested on: NCI-H226 lung

For `Nc1nc(N)c2ncn(CCCC(c3ccccc3)P(=O)(O)O)c2n1` (stereo not given), the TGI [1] was > 100 µM, the TGI [2] was > 100 µM and the TGI [3] was > 100 µM. For the same compound, the TGI [4] was > 100 µM, the TGI [5] was > 100 µM and the TGI [6] was > 100 µM. For the same compound, the TGI [7] was > 100 µM, the TGI [8] was > 100 µM and the TGI [9] was > 100 µM. For the same compound, the TGI [10] was > 100 µM, the TGI [11] was > 100 µM and the TGI [12] was > 100 µM. For the same compound, the TGI [13] was > 100 µM, the TGI [14] was > 100 µM and the TGI [15] was > 100 µM. The TGI [16] was 36 µM, the TGI [17] was > 100 µM and the TGI [18] was > 100 µM. For the same compound, the TGI [19] was > 100 µM, the TGI [20] was > 100 µM and the TGI [21] was > 100 µM. The TGI [22] was > 100 µM, the TGI [23] was > 100 µM and the TGI [24] was > 100 µM. For the same compound, the TGI [25] was > 100 µM, the TGI [26] was > 100 µM and the TGI [27] was > 100 µM. For the same compound, the TGI [28] was > 100 µM, the TGI [29] was > 100 µM and the TGI [30] was > 100 µM. The TGI [31] was > 100 µM, the TGI [32] was > 100 µM and the TGI [33] was > 100 µM. For the same compound, the TGI [34] was > 100 µM, the TGI [35] was > 100 µM and the TGI [36] was > 100 µM. For the same compound, the TGI [37] was > 100 µM, the TGI [38] was > 100 µM and the TGI [39] was > 100 µM. For the same compound, the TGI [40] was > 100 µM, the TGI [41] was > 100 µM and the TGI [42] was > 100 µM. The TGI [43] was > 100 µM, the TGI [44] was > 100 µM and the TGI [45] was > 100 µM. The TGI [46] was > 100 µM, the TGI [47] was > 100 µM and the TGI [48] was > 100 µM. For the same compound, the TGI [49] was > 100 µM, the TGI [50] was > 100 µM and the TGI [51] was > 100 µM. For the same compound, the TGI [52] was > 100 µM.
In the case of `CC(=O)Nc1ccc(-c2nnc(SCC(=O)Nc3ccccc3)o2)cc1`, the TGI [1] is reported as > 100 µM, the TGI [2] is reported as > 100 µM and the TGI [53] is reported as > 100 µM. The TGI [3] was > 100 µM, the TGI [4] was > 100 µM and the TGI [5] was > 100 µM. The TGI [6] was > 100 µM, the TGI [7] was > 100 µM and the TGI [8] was > 100 µM. The TGI [9] was > 100 µM, the TGI [10] was > 100 µM and the TGI [11] was > 100 µM. The TGI [12] was > 100 µM, the TGI [13] was > 100 µM and the TGI [14] was > 100 µM. The TGI [15] was > 100 µM, the TGI [16] was > 100 µM and the TGI [17] was > 100 µM. For the same compound, the TGI [18] was > 100 µM, the TGI [21] was > 100 µM and the TGI [22] was > 100 µM. The TGI [23] was > 100 µM, the TGI [24] was > 100 µM and the TGI [54] was > 100 µM. For the same compound, the TGI [25] was > 100 µM, the TGI [26] was > 100 µM and the TGI [27] was > 100 µM. The TGI [55] was > 100 µM, the TGI [28] was > 100 µM and the TGI [29] was > 100 µM. The TGI [30] was > 100 µM, the TGI [31] was > 100 µM and the TGI [32] was > 100 µM. For the same compound, the TGI [33] was > 100 µM, the TGI [34] was > 100 µM and the TGI [35] was > 100 µM. For the same compound, the TGI [36] was > 100 µM, the TGI [37] was > 100 µM and the TGI [38] was > 100 µM. The TGI [39] was > 100 µM, the TGI [40] was > 100 µM and the TGI [41] was > 100 µM. The TGI [42] was > 100 µM, the TGI [43] was > 100 µM and the TGI [44] was > 100 µM. For the same compound, the TGI [45] was > 100 µM, the TGI [46] was > 100 µM and the TGI [47] was > 100 µM. The TGI [48] was > 100 µM, the TGI [49] was > 100 µM and the TGI [56] was > 100 µM. For the same compound, the TGI [51] was > 100 µM and the TGI [52] was > 100 µM.
